Test results as given in ChEMBL document CHEMBL1131036, “Structure-based design, synthesis, and biological evaluation of irreversible human rhinovirus 3C protease inhibitors. 1. Michael acceptor structure-activity studies” (J Med Chem, 1998).

How the values were obtained:
[1] = target: T1, Human rhinovirus A protease (Human rhinovirus sp.) (UniProt Q4U254); assay: Catalytic rate constant (Kobs/[I]) evaluated against human rhinovirus (HRV) serotype 14 3C Protease (3CP); details: Human rhinovirus B (HRV-14)
T1 sequence (whole entry): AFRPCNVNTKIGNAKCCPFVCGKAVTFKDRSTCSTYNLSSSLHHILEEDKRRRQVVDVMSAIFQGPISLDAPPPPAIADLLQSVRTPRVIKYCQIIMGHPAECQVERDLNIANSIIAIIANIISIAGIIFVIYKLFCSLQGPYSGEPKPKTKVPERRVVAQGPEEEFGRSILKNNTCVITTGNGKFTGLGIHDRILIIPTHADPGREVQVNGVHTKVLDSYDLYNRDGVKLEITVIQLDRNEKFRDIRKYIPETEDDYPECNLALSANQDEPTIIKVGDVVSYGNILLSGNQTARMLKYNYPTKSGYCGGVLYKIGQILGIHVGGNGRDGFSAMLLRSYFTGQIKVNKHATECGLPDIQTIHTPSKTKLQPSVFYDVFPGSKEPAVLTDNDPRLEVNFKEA

HeLa [2] = assay: Concentration of compound that decreased the percentage of formazan production in treated HRV-14 virus infected cells to that produced in uninfected cells; format: functional; details: Homo sapiens
HeLa [3] = assay: Formazan production in HRV-14 virus infected cells; format: functional, cell-based; details: Homo sapiens

Row | SMILES | K obs / 1 [1] [M⁻¹ s⁻¹] | CC50 (HeLa [2]) [µM] | EC50 (HeLa [3]) [µM]
1 | CC(C)C[C@H](NC(=O)OCc1ccccc1)C(=O)N[C@@H](Cc1ccccc1)C(=O)N[C@H](/C=C/C(=O)N(C)C)CCC(N)=O | 1300 | > 100 | 56
2 | CCOP(=O)(/C=C/[C@H](CCC(N)=O)NC(=O)[C@H](Cc1ccccc1)NC(=O)[C@H](CC(C)C)NC(=O)OCc1ccccc1)OCC | 0 | > 320 | > 320
3 | CC(C)C[C@H](NC(=O)OCc1ccccc1)C(=O)N[C@@H](Cc1ccccc1)C(=O)N[C@H](/C=C/c1ccno1)CCC(N)=O | 600 | > 320 | > 320
4 | CC(C)C[C@H](NC(=O)OCc1ccccc1)C(=O)N[C@@H](Cc1ccccc1)C(=O)N[C@H](/C=C/C(=O)c1ccc([N+](=O)[O-])cc1)CCC(N)=O | 310000 | 32 | 32
5 | COc1ccc(C(=O)/C=C/[C@H](CCC(N)=O)NC(=O)[C@H](Cc2ccccc2)NC(=O)[C@H](CC(C)C)NC(=O)OCc2ccccc2)cc1 | 150000 | 100 | 22
6 | CC(C)C[C@H](NC(=O)OCc1ccccc1)C(=O)N[C@@H](Cc1ccccc1)C(=O)N[C@H](/C=C/c1ccccn1)CCC(N)=O | 120 | > 100 | > 100
7 | CC(C)C[C@H](NC(=O)OCc1ccccc1)C(=O)N[C@@H](Cc1ccccc1)C(=O)N[C@H](/C=C/C(=O)Nc1ccccc1)CCC(N)=O | 200 | > 320 | > 320
8 | CC(C)C[C@H](NC(=O)OCc1ccccc1)C(=O)N[C@@H](Cc1ccccc1)C(=O)N[C@H](/C=C/C#N)CCC(N)=O | 0 | > 320 | 18
9 | CC(C)C[C@H](NC(=O)OCc1ccccc1)C(=O)N[C@@H](Cc1ccccc1)C(=O)N[C@H](/C=C/C(=O)N1CCc2cc(Br)ccc21)CCC(N)=O | 5800 | > 320 | 47
10 | COC(=O)/C=C/[C@H](CCC(N)=O)NC(=O)[C@H](Cc1ccccc1)NC(=O)[C@H](CC(C)C)NC(=O)OCc1ccccc1 | 20000 | > 320 | 1.3
11 | CC(C)C[C@H](NC(=O)OCc1ccccc1)C(=O)N[C@@H](Cc1ccccc1)C(=O)N[C@H](/C=C/C(=O)OCc1ccccc1)CCC(N)=O | 39400 | > 100 | 3.2
12 | CO/N=C/C=C/[C@H](CCC(N)=O)NC(=O)[C@H](Cc1ccccc1)NC(=O)[C@H](CC(C)C)NC(=O)OCc1ccccc1 | 0 | > 320 | 100
13 | CC(C)C[C@H](NC(=O)OCc1ccccc1)C(=O)N[C@@H](Cc1ccccc1)C(=O)N[C@H](/C=C/C(=O)NC1CCCC1)CCC(N)=O | 250 | > 320 | > 100
14 | CON1CC/C(=C\[C@H](CCC(N)=O)NC(=O)[C@H](Cc2ccccc2)NC(=O)[C@H](CC(C)C)NC(=O)OCc2ccccc2)C1=O | 800 | > 100 | 18
15 | CC(C)C[C@H](NC(=O)OCc1ccccc1)C(=O)N[C@@H](Cc1ccccc1)C(=O)N[C@H](/C=C/S(C)(=O)=O)CCC(N)=O | 160 | > 320 | > 320
16 | CCN(CC)c1ccc(C(=O)/C=C/[C@H](CCC(N)=O)NC(=O)[C@H](Cc2ccccc2)NC(=O)[C@H](CC(C)C)NC(=O)OCc2ccccc2)cc1 | 4500 | 25 | > 25
17 | CC(C)C[C@H](NC(=O)OCc1ccccc1)C(=O)N[C@@H](Cc1ccccc1)C(=O)N[C@H](/C=C/C(=O)n1ccc2ccccc21)CCC(N)=O | 53000 | 29 | 1.8
18 | CC(C)C[C@H](NC(=O)OCc1ccccc1)C(=O)N[C@@H](Cc1ccccc1)C(=O)N[C@H](/C=C/S(=O)(=O)c1ccccc1)CCC(N)=O | 270 | > 320 | 200

Row | SMILES | K obs / 1 [1] [M⁻¹ s⁻¹] | CC50 (HeLa [2]) [µM] | EC50 (HeLa [3]) [µM]
19 | CC(C)C[C@H](NC(=O)OCc1ccccc1)C(=O)N[C@@H](Cc1ccccc1)C(=O)N[C@H](/C=C/C(=O)N1CCCO1)CCC(N)=O | 14000 | > 320 | 45
20 | CC(C)C[C@H](NC(=O)OCc1ccccc1)C(=O)N[C@@H](Cc1ccccc1)C(=O)N[C@H](/C=C/C(=O)C(C)(C)C)CCC(N)=O | 15000 | 5.6 | 1.7
21 | CC(C)C[C@H](NC(=O)OCc1ccccc1)C(=O)N[C@@H](Cc1ccccc1)C(=O)N[C@H](/C=C/C(=O)N1CCc2cccc(Cl)c21)CCC(N)=O | 5400 | > 320 | 56
22 | CC(C)C[C@H](NC(=O)OCc1ccccc1)C(=O)N[C@@H](Cc1ccccc1)C(=O)N[C@H](/C=C/C(=O)N1CCc2cc(Cl)ccc21)CCC(N)=O | 450 | 56 | 5.6
23 | CC(C)C[C@H](NC(=O)OCc1ccccc1)C(=O)N[C@@H](Cc1ccccc1)C(=O)N[C@H](/C=C/C(=O)N(C)O)CCC(N)=O | 1800 | 42 | 42
24 | CC(C)C[C@H](NC(=O)OCc1ccccc1)C(=O)N[C@@H](Cc1ccccc1)C(=O)N[C@H](/C=C/C(=O)c1ccc(C#N)cc1)CCC(N)=O | 200000 | > 320 | 50
25 | COC(=O)/C=C\[C@H](CCC(N)=O)NC(=O)[C@H](Cc1ccccc1)NC(=O)[C@H](CC(C)C)NC(=O)OCc1ccccc1 | 2400 | > 320 | 3.2
26 | COC(=O)N1CC/C(=C\[C@H](CCC(N)=O)NC(=O)[C@H](Cc2ccccc2)NC(=O)[C@H](CC(C)C)NC(=O)OCc2ccccc2)C1=O | 8400 | > 100 | 28
27 | CC(C)C[C@H](NC(=O)OCc1ccccc1)C(=O)N[C@@H](Cc1ccccc1)C(=O)N[C@H](/C=C/C(=O)n1cccc1)CCC(N)=O | 400000 | 6.3 | 1.4
28 | CC(C)C[C@H](NC(=O)OCc1ccccc1)C(=O)N[C@@H](Cc1ccccc1)C(=O)N[C@H](/C=C/C(=O)c1ccccc1)CCC(N)=O | 500000 | 16 | 4
29 | CC(C)C[C@H](NC(=O)OCc1ccccc1)C(=O)N[C@@H](Cc1ccccc1)C(=O)N[C@H](/C=C/C(=O)N1CCCCO1)CCC(N)=O | 19000 | 100 | 16
30 | CC(C)C[C@H](NC(=O)OCc1ccccc1)C(=O)N[C@@H](Cc1ccccc1)C(=O)N[C@H](/C=C/C(=O)O)CCC(N)=O | 30 | > 320 | > 100
31 | CC(C)C[C@H](NC(=O)OCc1ccccc1)C(=O)N[C@@H](Cc1ccccc1)C(=O)N[C@H](/C=C/C(=O)N1CCc2cccc(S(C)(=O)=O)c21)CCC(N)=O | < 1000 | > 320 | > 320
32 | CC(C)C[C@H](NC(=O)OCc1ccccc1)C(=O)N[C@@H](Cc1ccccc1)C(=O)N[C@H](/C=C/C(=O)N1CCC(O)C1)CCC(N)=O (some centres not stated) | 1200 | > 320 | > 320
33 | CCNC(=O)/C=C/[C@H](CCC(N)=O)NC(=O)[C@H](Cc1ccccc1)NC(=O)[C@H](CC(C)C)NC(=O)OCc1ccccc1 | 350 | > 320 | > 320
34 | CSc1cccc2c1N(C(=O)/C=C/[C@H](CCC(N)=O)NC(=O)[C@H](Cc1ccccc1)NC(=O)[C@H](CC(C)C)NC(=O)OCc1ccccc1)CC2 | 300 |  | 
35 | CC(C)C[C@H](NC(=O)OCc1ccccc1)C(=O)N[C@@H](Cc1ccccc1)C(=O)N[C@H](/C=C1\CCCOC1=O)CCC(N)=O |  | > 100 | 16
